# Values quoted from earlier work, collected in US20240350654A1, “NANOCARRIERS FOR TARGETED DELIVERY OF THERAPEUTICS” (Northwestern University, priority 2023, published 2024).
# Settings: humans, approximation
smiles,measurement,value
CO[C@@H]1[C@H](N(C)C(=O)c2ccccc2)C[C@H]2O[C@]1(C)n1c3ccccc3c3c4c(c5c6ccccc6n2c5c31)C(=O)NC4 [midostaurin],total peak blood concentration of midostaurin and its active metabolites,2.16 µg/mL
